Test results published in US20110092487A1, “NOVEL 3,8-DIAZA-BICYCLO[3.2.1]OCTANE-AND 3,9-DIAZA-BICYCLO[3.3.1]-NONANE-3-CARBOXYLIC ACID ESTER DERIVATIVES AND THEIR USE AS MONOAMINE NEUROT[…]-UPTAKE INHIBITORS” (NeuroSearch A/S, priority 2008, published 2011).

Legend:
Assay type in all cases: biochemical
[1] = molecular target: T1, noradrenaline (NA) reuptake in synaptosomes (Rattus norvegicus, UniProt Q63380); test: Inhibition of NA reuptake in synaptosomes; settings: 3H-NA, read-out: NA-uptake IC50
T1 construct: in synaptosomes as described in WO 97/16451 (NeuroSearch A/S); from tissue
Excerpt: (§1) Compounds of the invention may be tested for their ability to inhibit reuptake of the monoamines dopamine, noradrenaline and serotonin in synaptosomes e.g. such as described in WO 97/30997 (NeuroSearch NS) or WO 97/16451 (NeuroSearch NS). Based on the balanced activity observed in these tests the compound of the invention is considered useful for the treatment, prevention or alleviation of a disease or a disorder or a condition of a mammal, including a human, which disease, disorder or condition is responsive to inhibition of monoamine neurotransmitter re-uptake in the central nervous system.
(§2) Compounds were tested for their ability to inhibit the reuptake of the monoamine neurotransmitters dopamine (DA) noradrenaline (NA) and serotonine (5-HT) in synaptosomes as described in WO 97/16451 (NeuroSearch A/S).
(§3) The test values are given as IC50 (the concentration (μM) of the test substance which inhibits the specific binding of ^3H-DA, ^3H-NA, or ^3H-5-HT by 50%).

[2] = molecular target: T2, dopamine (DA) reuptake in synaptosomes (Rattus norvegicus, UniProt P23977); test: Inhibition of DA reuptake in synaptosomes; settings: 3H-DA, read-out: DA-uptake IC50
T2 construct: in synaptosomes as described in WO 97/16451 (NeuroSearch A/S); from tissue
Excerpt: as §1, §2, §3

[3] = molecular target: T3, serotonine (5-HT) reuptake in synaptosomes (Rattus norvegicus, UniProt P31652); test: Inhibition of 5-HT reuptake in synaptosomes; settings: 3H-5-HT, read-out: 5-HT-uptake IC50
T3 construct: in synaptosomes as described in WO 97/16451 (NeuroSearch A/S); from tissue
Excerpt: as §1, §2, §3

T2 sequence (P23977 whole entry): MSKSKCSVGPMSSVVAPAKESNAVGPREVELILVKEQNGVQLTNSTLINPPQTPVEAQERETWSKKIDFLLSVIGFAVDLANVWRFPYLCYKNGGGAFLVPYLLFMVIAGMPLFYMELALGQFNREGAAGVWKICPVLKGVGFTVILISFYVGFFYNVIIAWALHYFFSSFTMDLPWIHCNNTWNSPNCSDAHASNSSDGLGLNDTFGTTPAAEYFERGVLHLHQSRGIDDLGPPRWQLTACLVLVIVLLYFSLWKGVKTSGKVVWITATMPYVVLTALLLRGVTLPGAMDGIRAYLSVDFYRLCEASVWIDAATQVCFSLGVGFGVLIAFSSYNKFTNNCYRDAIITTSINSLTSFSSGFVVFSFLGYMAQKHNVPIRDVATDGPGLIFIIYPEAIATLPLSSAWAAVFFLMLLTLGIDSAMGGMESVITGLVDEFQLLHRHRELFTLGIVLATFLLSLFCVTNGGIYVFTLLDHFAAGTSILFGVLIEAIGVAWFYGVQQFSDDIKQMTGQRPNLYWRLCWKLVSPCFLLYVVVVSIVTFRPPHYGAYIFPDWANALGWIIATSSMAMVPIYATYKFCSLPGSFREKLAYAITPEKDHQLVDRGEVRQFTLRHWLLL
T1 sequence (Q63380 1-617): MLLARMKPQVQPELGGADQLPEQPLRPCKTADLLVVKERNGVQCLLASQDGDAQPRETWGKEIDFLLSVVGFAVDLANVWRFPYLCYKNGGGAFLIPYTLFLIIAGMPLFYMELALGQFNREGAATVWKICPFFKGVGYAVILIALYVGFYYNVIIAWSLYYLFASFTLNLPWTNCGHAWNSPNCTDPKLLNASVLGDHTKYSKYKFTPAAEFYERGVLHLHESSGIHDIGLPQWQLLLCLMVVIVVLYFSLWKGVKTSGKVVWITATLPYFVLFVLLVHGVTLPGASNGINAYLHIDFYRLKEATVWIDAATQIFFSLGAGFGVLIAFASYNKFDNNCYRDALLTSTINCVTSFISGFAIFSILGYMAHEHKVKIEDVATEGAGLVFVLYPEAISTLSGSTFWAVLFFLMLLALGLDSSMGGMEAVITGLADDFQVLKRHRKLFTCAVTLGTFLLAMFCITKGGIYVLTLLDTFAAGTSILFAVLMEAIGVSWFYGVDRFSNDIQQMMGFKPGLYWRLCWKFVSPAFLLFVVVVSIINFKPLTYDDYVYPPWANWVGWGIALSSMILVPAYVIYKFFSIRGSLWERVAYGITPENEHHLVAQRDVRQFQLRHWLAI
T3 sequence (P31652 whole entry): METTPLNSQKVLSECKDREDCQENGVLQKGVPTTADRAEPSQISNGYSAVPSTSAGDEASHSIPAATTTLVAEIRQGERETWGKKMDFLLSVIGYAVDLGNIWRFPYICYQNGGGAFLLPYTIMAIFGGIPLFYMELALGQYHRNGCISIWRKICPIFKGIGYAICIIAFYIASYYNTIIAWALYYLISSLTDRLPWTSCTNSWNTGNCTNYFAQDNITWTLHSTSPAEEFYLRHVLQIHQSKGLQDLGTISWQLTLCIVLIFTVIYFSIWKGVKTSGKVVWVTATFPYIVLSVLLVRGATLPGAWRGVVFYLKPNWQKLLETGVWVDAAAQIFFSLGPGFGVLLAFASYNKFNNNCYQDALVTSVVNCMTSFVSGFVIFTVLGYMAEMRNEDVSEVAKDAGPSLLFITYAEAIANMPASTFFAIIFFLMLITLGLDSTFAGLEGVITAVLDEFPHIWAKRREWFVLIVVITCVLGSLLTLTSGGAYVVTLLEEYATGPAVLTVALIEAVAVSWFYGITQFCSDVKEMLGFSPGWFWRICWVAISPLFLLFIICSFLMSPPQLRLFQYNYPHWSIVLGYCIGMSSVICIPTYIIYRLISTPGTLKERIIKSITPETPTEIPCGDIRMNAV

Row | Compound | IC50 [1] | IC50 [2] | IC50 [3]
1 | O=C(Oc1ccc2ccc(=O)oc2c1)N1CC2CCC(C1)N2 [3,8-Diaza-bicyclo[3.2.1]octane-3-carboxylic acid 2-oxo-2H-chromen-7-yl ester] | 620 nM | 92 nM | 27 nM
2 | O=C(Oc1ccc(Cl)c(Cl)c1)N1CC2CCCC(C1)N2 [3,9-Diaza-bicyclo[3.3.1]nonane-3-carboxylic acid 3,4-dichloro-phenyl ester] | 2000 nM | > 1000 nM | 7.8 nM
3 | CN1C2CCCC1CN(C(=O)Oc1ccc3ccc(=O)oc3c1)C2 [9-Methyl-3,9-diaza-bicyclo[3.3.1]nonane-3-carboxylic acid 2-oxo-2H-chromen-7-yl ester] | 1600 nM | 610 nM | 40 nM
4 | COc1ccc2cc(OC(=O)N3CC4CCCC(C3)N4C)ccc2c1 [9-Methyl-3,9-diaza-bicyclo[3.3.1]nonane-3-carboxylic acid 6-methoxynaphthalen-2-yl ester] | 24 nM | 30 nM | 340 nM
